Results on 44 compounds are retold here after US10683279B2, “Apoptosis signal-regulating kinase 1 inhibitors and methods of use thereof” (Enanta Pharmaceuticals, Inc., priority 2017, dated 2020).

Structures are written as SMILES. Where only a bound is given, the exact number is not on record here.

This test addresses ASK1 (Homo sapiens (Human), UniProt Q99683). The test can be described thus: ASK1 kinase inhibition, HTRF KinEASE Assay System (TR-FRET). Conditions: 5 nM ASK1 kinase, 1 uM STK3 peptide substrate, 100 uM ATP, 3 hours. Type of test: biochemical. As to the method: The ability (IC50) of compounds to inhibit ASK1 kinase activity was determined by HTRF® KinEASE™ Assay System.
ASK1 was purchased from Thermofisher (Catalogue # PV401.1), ATP was purchased from Sigma (Catalogue # A7699), HTRF® KinEASE™ Assay System was obtained from Cisbio (Bedford, Mass). ½ Area plate was purchased from Perkin Elmer (Catalogue # #6005560). HTRF® KinEASE™-STK is a generic method for measuring serine/threonine kinase activities using a time-resolved fluorescence resonance energy transfer (TR-FRET) immunoassay. The IC50 value for each compound was determined in the presence of compound (various concentration from 0 to 10 μM) and a fixed amount of ATP and peptide substrates. The test compound, luM STK3 peptide substrate, and 5 nM of ASK1 kinase are incubated with kinase reaction buffer containing 50 mM HEPES pH 7.5, 0.01% BRIJ-35, 10 mM MgCl2, and 1 mM EGTA for 30 minutes. 100 uM ATP is added to start kinase reaction and incubated for 3 hours. The STK3-antibody labeled with Eu^3+-Cryptate and 125 nM streptavidin-XL665 are mixed in a single addition with stop reagents provided by the Cisbio kit used to stop the kinase reaction. Fluorescence is detected using an Envision Multilabeled 2014 reader from PerkinElmer. The Fluorescence is measured at 615 nm (Cryptate) and 665 nm (XL665) and a ratio of 665 nm/615 nm is calculated for each well. The resulting TR-FRET is proportional to the phosphorylation level. Staurosporine was used as the positive control. IC50 was determined by XLfit 5.3.
By using above method, the inhibition of ASK1 was tested for the compound of formula (I). IC50 ranges are as follows: A<1 nM; 1 nM<B<10 nM; 10 nM<C<100 nM; 100 nM<D
For orientation: In TR-FRET formats the signal depends on donor and acceptor labels being close together.

Chain of ASK1 (Q99683 whole entry): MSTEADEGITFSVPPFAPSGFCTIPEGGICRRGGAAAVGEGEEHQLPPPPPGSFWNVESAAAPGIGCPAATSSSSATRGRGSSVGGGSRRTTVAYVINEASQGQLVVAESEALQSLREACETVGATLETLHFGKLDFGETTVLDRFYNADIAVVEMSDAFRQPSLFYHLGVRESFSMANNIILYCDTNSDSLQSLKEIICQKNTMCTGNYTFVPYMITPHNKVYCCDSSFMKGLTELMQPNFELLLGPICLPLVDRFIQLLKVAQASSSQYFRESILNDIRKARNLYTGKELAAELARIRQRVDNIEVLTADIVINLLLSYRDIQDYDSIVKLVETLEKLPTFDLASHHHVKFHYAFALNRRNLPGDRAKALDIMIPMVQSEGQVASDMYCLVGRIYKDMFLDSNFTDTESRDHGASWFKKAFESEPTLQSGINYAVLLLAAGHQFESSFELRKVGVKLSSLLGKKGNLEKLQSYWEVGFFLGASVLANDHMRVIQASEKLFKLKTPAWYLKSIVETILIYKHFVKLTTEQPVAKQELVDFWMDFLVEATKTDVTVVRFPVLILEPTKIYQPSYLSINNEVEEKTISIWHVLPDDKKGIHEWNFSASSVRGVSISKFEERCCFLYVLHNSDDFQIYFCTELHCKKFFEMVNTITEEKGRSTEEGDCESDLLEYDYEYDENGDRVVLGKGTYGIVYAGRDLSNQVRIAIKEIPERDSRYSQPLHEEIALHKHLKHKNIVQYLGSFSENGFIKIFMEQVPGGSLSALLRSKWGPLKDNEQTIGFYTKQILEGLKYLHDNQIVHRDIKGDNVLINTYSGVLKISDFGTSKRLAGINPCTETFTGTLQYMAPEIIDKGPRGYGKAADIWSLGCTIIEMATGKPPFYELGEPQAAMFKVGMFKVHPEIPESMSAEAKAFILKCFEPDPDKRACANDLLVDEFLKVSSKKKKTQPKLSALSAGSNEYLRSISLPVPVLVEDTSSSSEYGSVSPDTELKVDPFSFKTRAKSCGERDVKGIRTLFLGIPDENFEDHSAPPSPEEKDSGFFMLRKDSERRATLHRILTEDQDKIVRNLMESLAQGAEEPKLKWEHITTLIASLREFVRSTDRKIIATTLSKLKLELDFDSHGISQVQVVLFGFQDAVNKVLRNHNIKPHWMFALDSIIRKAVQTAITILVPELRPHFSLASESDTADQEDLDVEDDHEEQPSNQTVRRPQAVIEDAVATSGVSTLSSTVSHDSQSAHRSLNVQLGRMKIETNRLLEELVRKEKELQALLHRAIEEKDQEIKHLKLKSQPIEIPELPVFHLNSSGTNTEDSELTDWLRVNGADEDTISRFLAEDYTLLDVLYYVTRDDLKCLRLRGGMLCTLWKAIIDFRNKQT

The term IC50 denotes the concentration that inhibits the measured activity by half. Read a low IC50 as greater potency in that assay. As to `Cc1cc(F)c(C(=O)Nc2cccc(-c3nnnn3C(C)C)n2)cc1-n1cnc(C2CC2)c1` [Example 1a, 5-(4-cyclopropyl-1H-imidazol-1-yl)-2-fluoro-N-(6-(1-isopropyl-1H-tetrazol-5-yl)pyridin-2-yl)-4-methylbenzamide], the IC50 lay within 1 to 10 nM.
Under `Cc1cc(F)c(C(=O)Nc2cccc(-n3nnnc3C(C)C)n2)cc1-n1cnc(C2CC2)c1` [Example 1b, 5-(4-cyclopropyl-1H-imidazol-1-yl)-2-fluoro-N-(6-(5-isopropyl-1H-tetrazol-1-yl)pyridin-2-yl)-4-methylbenzamide] stands 1 to 10 nM; under `Cc1cc(F)c(C(=O)Nc2cccc(-c3nnnn3C3CC3)n2)cc1-n1cnc(C2CC2)c1` [Example 2a, 5-(4-cyclopropyl-1H-imidazol-1-yl)-2-fluoro-N-(6-(1-cyclopropyl-1H-tetrazol-5-yl)pyridin-2-yl)-4-methylbenzamid], 1 to 10 nM.
To `Cc1cc(F)c(C(=O)Nc2cccc(-n3nnnc3C(C)C)n2)cc1-n1cnc(C(F)(F)F)c1` [Example 2b] belongs above 100 nM.
With `Cc1cc(F)c(C(=O)Nc2cccc(-c3nnnn3C3(C)CC3)n2)cc1-n1cnc(C2CC2)c1` [Example 3a, 5-(4-cyclopropyl-1H-imidazol-1-yl)-2-fluoro-N-(6-(1-(1-methylcyclo-propyl)-1H-tetrazol-5-yl)pyridin-2-yl)-4-methylbenzamide], the IC50 was in the range of 1 to 10 nM.
Under `Cc1cnc(C(=O)Nc2cccc(-n3nnnc3C(C)C)n2)cc1-n1cnc(C2CC2)c1` [Example 3b] stands 1 to 10 nM; under `Cc1cc(F)c(C(=O)Nc2cccc(-n3ccnc3C(C)C)n2)cc1-n1cnc(C2CC2)c1` [Example 3c, 5-(4-cyclopropyl-1H-imidazol-1-yl)-2-fluoro-N-(6-(2-isopropyl-1H-imidazol-1-yl)pyridin-2-yl)-4-methylbenzamide], above 1000 nM; under `CC(=O)OC[C@H](C)n1nnnc1-c1cccc(NC(=O)c2cc(-n3cnc(C4CC4)c3)c(C)cc2F)n1` [Example 4a, (S)-2-(5-(6-(5-(4-cyclopropyl-1H-imidazol-1-yl)-2-fluoro-4-methyl-benzamido)pyridin-2-yl)-1H-tetrazol-1-yl)propyl acetate], 1 to 10 nM.
Under `Cc1cnc(C(=O)Nc2cccc(-n3nnnc3C(C)C)n2)cc1-n1cnc(C(F)(F)F)c1` [Example 4b] stands 10 to 100 nM; under `Cc1cc(F)c(C(=O)Nc2cccc(-c3cnnn3C(C)C)n2)cc1-n1cnc(C2CC2)c1` [Example 4c, 5-(4-cyclopropyl-1H-imidazol-1-yl)-2-fluoro-N-(6-(1-isopropyl-1H-1,2,3-triazol-5-yl)pyridin-2-yl)-4-methylbenzamide], 10 to 100 nM; under `Cc1cc(F)c(C(=O)Nc2cccc(-c3nnnn3[C@@H](C)CO)n2)cc1-n1cnc(C2CC2)c1` [Example 5a, (S)-5-(4-cyclopropyl-1H-imidazol-1-yl)-2-fluoro-N-(6-(1-(1-hydroxypropan-2-yl)-1H-tetrazol-5-yl)pyridin-2-yl)-4-methylbenzamide], 1 to 10 nM.
Under `Cc1cnc(C(=O)Nc2cccc(-n3nnnc3C(C)C)n2)cc1-n1cnc(C(C)(C)C)c1` [Example 5b] stands 1 to 10 nM.
Regarding `CC(=O)OC[C@@H](C)n1nnnc1-c1cccc(NC(=O)c2cc(-n3cnc(C4CC4)c3)c(C)cc2F)n1` [Example 6a, (R)-2-(5-(6-(5-(4-cyclopropyl-1H-imidazol-1-yl)-2-fluoro-4-methyl-benzamido)pyridin-2-yl)-1H-tetrazol-1-yl)propyl acetate], the IC50 is above 100 nM.
To `Cc1cc(F)c(C(=O)Nc2cccc(-n3nnnc3C(C)C)n2)cc1-n1cnc(C(C)(C)C)c1` [Example 6b] belongs 1 to 10 nM.
The compound `Cc1cc(F)c(C(=O)Nc2cccc(-c3nnnn3[C@H](C)CO)n2)cc1-n1cnc(C2CC2)c1` [Example 7a, (R)-5-(4-cyclopropyl-1H-imidazol-1-yl)-2-fluoro-N-(6-(1-(1-hydroxypropan-2-yl)-1H-tetrazol-5-yl)pyridin-2-yl)-4-methylbenzamide] gave an IC50 of 1 to 10 nM.
Under `Cc1cc(F)c(C(=O)Nc2cccc(-c3nnnn3C3CCCC3)n2)cc1-n1cnc(C2CC2)c1` [Example 8a] stands 1 to 10 nM; under `Cc1cc(F)c(C(=O)Nc2cccc(-c3nnnn3CC(C)C)n2)cc1-n1cnc(C2CC2)c1` [Example 9a], 10 to 100 nM.
In turn, `Cc1cc(F)c(C(=O)Nc2cccc(-c3nnnn3C3CCC3)n2)cc1-n1cnc(C2CC2)c1` [Example 10a] showed an IC50 of 1 to 10 nM.
`Cc1cc(F)c(C(=O)Nc2cccc(-c3nnnn3C3CC(F)(F)C3)n2)cc1-n1cnc(C2CC2)c1` [Example 11a] had an IC50 of 1 to 10 nM.
Under `Cc1cc(F)c(C(=O)Nc2cccc(-c3nnnn3CC(F)F)n2)cc1-n1cnc(C2CC2)c1` [Example 12a] stands 1 to 10 nM; under `Cc1cc(F)c(C(=O)Nc2cccc(-c3nnnn3CC(C)(C)C)n2)cc1-n1cnc(C2CC2)c1` [Example 13a], 1 to 10 nM; under `Cc1cc(F)c(C(=O)Nc2cccc(-c3nnnn3[C@H](C)CF)n2)cc1-n1cnc(C2CC2)c1` [Example 14a], 1 to 10 nM.
To `Cc1cc(F)c(C(=O)Nc2cccc(-c3nnnn3[C@@H](C)CF)n2)cc1-n1cnc(C2CC2)c1` [Example 15a] belongs 1 to 10 nM; to `Cc1cc(F)c(C(=O)Nc2cccc(-c3nnnn3C(C)C(F)(F)F)n2)cc1-n1cnc(C2CC2)c1` (centres unmarked) [Example 16a], 10 to 100 nM; to `Cc1cc(F)c(C(=O)Nc2cccc(-c3nnnn3[C@@H]3CCOC3)n2)cc1-n1cnc(C2CC2)c1` [Example 17a], 1 to 10 nM.
`Cc1cc(F)c(C(=O)Nc2cccc(-c3nnnn3[C@H]3CCOC3)n2)cc1-n1cnc(C2CC2)c1` [Example 18a]: the IC50 lay in the range of 1 to 10 nM.
Under `CC(=O)NC[C@@H](C)n1nnnc1-c1cccc(NC(=O)c2cc(-n3cnc(C4CC4)c3)c(C)cc2F)n1` [Example 20a] stands 10 to 100 nM; under `Cc1cc(F)c(C(=O)Nc2cccc(-c3nnnn3[C@H]3C[C@@H](O)C3)n2)cc1-n1cnc(C2CC2)c1` [Example 21a], 1 to 10 nM; under `Cc1cc(F)c(C(=O)Nc2cccc(-c3nnnn3[C@H](C)CCO)n2)cc1-n1cnc(C2CC2)c1` [Example 22a], 1 to 10 nM.
Under `CC(=O)OCC[C@@H](C)n1nnnc1-c1cccc(NC(=O)c2cc(-n3cnc(C4CC4)c3)c(C)cc2F)n1` [Example 23a] stands 1 to 10 nM; under `CCCC(=O)OC[C@@H](C)n1nnnc1-c1cccc(NC(=O)c2cc(-n3cnc(C4CC4)c3)c(C)cc2F)n1` [Example 24a], 10 to 100 nM; under `Cc1cc(F)c(C(=O)Nc2cccc(-c3nnnn3[C@H](C)COC(=O)c3ccccc3)n2)cc1-n1cnc(C2CC2)c1` [Example 25a], above 1000 nM.
Under `Cc1cc(F)c(C(=O)Nc2cccc(-c3nnnn3C(CO)CO)n2)cc1-n1cnc(C2CC2)c1` [Example 26a] stands below 1 nM.
The compound `Cc1cc(F)c(C(=O)Nc2cccc(-c3nnnn3C(C)C)n2)cc1-n1cnc(C(F)(F)F)c1` [Example 27a] returned an IC50 of 10 to 100 nM.
To `Cc1cc(F)c(C(=O)Nc2cccc(-c3nnnn3[C@H](C)CO)n2)cc1-n1cnc(C(F)(F)F)c1` [Example 28a] belongs 1 to 10 nM; to `Cc1cc(F)c(C(=O)Nc2cccc(-c3nnnn3C(C)C)n2)cc1-n1cnc(C(C)(C)C)c1` [Example 29a], 1 to 10 nM; to `Cc1cc(F)c(C(=O)Nc2cccc(-c3nnnn3[C@H](C)CO)n2)cc1-n1cnc(C(C)(C)C)c1` [Example 30a], 1 to 10 nM.
Under `CC(C)n1nnnc1-c1cccc(NC(=O)c2cc(-n3cnc(C4CC4)c3)c(C(F)F)cc2F)n1` [Example 31a, 5-(4-cyclopropyl-1H-imidazol-1-yl)-4-(difluoromethyl)-2-fluoro-N-(6-(1-isopropyl-1H-tetrazol-5-yl)pyridin-2-yl)benzamide] stands 1 to 10 nM.
Under `C[C@H](CO)n1nnnc1-c1cccc(NC(=O)c2cc(-n3cnc(C4CC4)c3)c(C(F)F)cc2F)n1` [Example 32a] stands 1 to 10 nM; under `C[C@H](CO)n1nnnc1-c1cccc(NC(=O)c2cc(-n3cnc(C4CC4)c3)c(CO)cc2F)n1` [Example 33a, (R)-5-(4-cyclopropyl-1H-imidazol-1-yl)-2-fluoro-4-(hydroxymethyl)-N-(6-(1-(1-hydroxypropan-2-yl)-1H-tetrazol-5-yl)pyridin-2-yl)benzamide], 1 to 10 nM.
Take `Cc1cc(F)c(C(=O)Nc2ccnc(-c3nnnn3C(C)C)n2)cc1-n1cnc(C2CC2)c1` [Example 34a]: the IC50 was 10 to 100 nM.
Under `Cc1cc(F)c(C(=O)Nc2cccc(-c3nnnn3C(C)C)c2)cc1-n1cnc(C2CC2)c1` [Example 35a] stands 10 to 100 nM; under `CC(C)n1nnnc1-c1cccc(NC(=O)c2cc(-n3cnc(C4CC4)c3)c(C(F)(F)F)cc2F)n1` [Example 37a], 1 to 10 nM; under `CC(C)n1nnnc1-c1nc(NC(=O)c2cc(-n3cnc(C4CC4)c3)c(F)cn2)cs1` [Example 38a], 1 to 10 nM.
